The record followed here is patent US11655216B2 (priority 2016, dated 2023).

Each structure is given as a SMILES string. Where two headings read alike, the source gives them in different places.

The target of assay [1] is T1, glutathione-S-transferase (GST) tagged LXRalpha LBD (ligand binding domain) (Homo sapiens, UniProt Q13133).
T1 construct: purchased Invitrogen pv4655
T1 sequence (Q13133 209-447 limits assumed): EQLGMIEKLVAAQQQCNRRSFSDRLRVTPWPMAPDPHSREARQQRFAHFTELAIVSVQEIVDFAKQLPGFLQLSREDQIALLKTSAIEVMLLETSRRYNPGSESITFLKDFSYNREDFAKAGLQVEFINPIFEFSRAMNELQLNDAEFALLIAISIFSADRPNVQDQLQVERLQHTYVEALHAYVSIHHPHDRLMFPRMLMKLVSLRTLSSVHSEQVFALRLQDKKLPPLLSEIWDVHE
The assay can be described thus: biochemical. The protocol: (§1) While running the LanthaScreen™ TR-FRET Liver X Receptor Coactivator Assay, LXR alpha-LBD or LXR beta-LBD was added to ligand test compounds followed by addition of a mixture of a fluorescein-labelled coactivator peptide and terbium-conjugated anti-GST antibody. After an incubation period at room temperature, TR-FRET (time-resolved fluorescence resonance energy transfer) was measured using a filter-based instrument capable of TR-FRET, e.g. PerkinElmer Envision.

In assay [2] the target is T2, glutathione-S-transferase (GST) tagged LXRbeta LBD (ligand binding domain) (Homo sapiens, UniProt P55055).
T2 construct: purchased Invitrogen pv4658
T2 sequence (P55055 222-460 limits assumed): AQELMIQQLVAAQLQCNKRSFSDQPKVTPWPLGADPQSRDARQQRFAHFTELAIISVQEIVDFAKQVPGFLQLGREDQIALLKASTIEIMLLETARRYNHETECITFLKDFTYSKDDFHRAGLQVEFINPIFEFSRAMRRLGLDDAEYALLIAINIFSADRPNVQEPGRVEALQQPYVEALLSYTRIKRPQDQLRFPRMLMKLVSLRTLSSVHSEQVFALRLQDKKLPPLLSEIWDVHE
In words: LanthaScreen TR-FRET Liver X Receptor Coactivator Assay, LXR beta. The conditions noted are these: for EC50: LXR beta IP, potency (Inflection Point), compound-induced co-activator recruitment, TR-FRET; for Emax: read-out: LXR beta actiivty at max dose, efficacy (% Emax) in relation to reference dual agonist T0901317. The class given is biochemical. Here is the method: as §1
(TR-FRET usually uses a lanthanide donor and a delayed reading to cut background.)

Where [3] appears, read: LXR alpha IP, potency (Inflection Point), compound-induced co-activator recruitment, TR-FRET.
Setting [4] is: read-out: LXR alpha actiivty at max dose, efficacy (% Emax) in relation to reference dual agonist T0901317.
Where [5] appears, read: potency (Inflection Point), compound-induced co-activator recruitment, TR-FRET.
Where [6] appears, read: efficacy (% Emax) in relation to reference dual agonist T0901317, read-out: LXR alpha actiivty at max dose.

As for `O=C(c1ccc(OCCCCC2CCN(C(=O)[C@](O)(c3ccccc3)C(F)(F)F)CC2)cc1Cl)N1CC[C@@H](O)C1` (single isomer, unassigned) [Example 8-3, (R or S)-1-(4-(4-(3-chloro-4-((R or S)-3-hydroxy-pyrrolidine-1-carbonyl)phenoxy)butyl)piperidin-1-yl)-3,3,3-trifluoro-2-hydroxy-2-phenylpropan-1-one], the EC50 in assay [1] (setting [3]) stood at 1010 nM; in assay [2], 17 nM. The figures for the Emax in assay [1] (setting [4]) and in assay [2] were 26% and 39%, respectively.
For the molecule `CCC(C)(C(=O)N1CCC2(CC1)C[C@H]2CCOc1ccc(C(=O)N(C)C)c(Cl)c1)c1ccccc1` (single isomer, unassigned) [Example 12-13, 2-chloro-N,N-dimethyl-4-(2-((1S or 1R)-6-(2-methyl-2-phenylbutanoyl)-6-azaspiro[2.5]octan-1-yl)ethoxy)benzamide], the EC50 in assay [1] (setting [3]) worked out at 505 nM; in assay [2], 17 nM. In addition, the Emax in assay [1] (setting [4]) is 26%; in assay [2] it was 72%.
Regarding `CN(C)C(=O)c1ccc(OCCC[C@H]2CC23CCN(C(=O)[C@](O)(c2ccccc2)C(F)(F)F)CC3)nc1Cl` (single isomer, unassigned) [Example 15-1, 2-chloro-N,N-dimethyl-6-(3-((S or R)-6-((R or S)-3,3,3-trifluoro-2-hydroxy-2-phenylpropanoyl)-6-azaspiro[2.5]octan-1-yl)propoxy)nicotinamide], the EC50 was found to be 506 nM in assay [1] (LXR alpha IP) and 19 nM in assay [2]. Further, the values for the Emax in assay [1] (read-out: LXR alpha actiivty at max dose) and in assay [2] were 28% and 88%, respectively.
Regarding `COc1cccc([C@@](O)(C(=O)N2CCC([C@H]3CC[C@@H](Oc4ccc(C(=O)N(C)C)c(Cl)c4)CC3)CC2)C(F)(F)F)c1` (single isomer, unassigned) [Example 38-1, 2-chloro-N,N-dimethyl-4-((1S,4s)-4-(1-((R or S)-3,3,3-trifluoro-2-hydroxy-2-(3-methoxyphenyl)propanoyl)piperidin-4-yl)cyclohexyloxy)benzamid], the EC50 in assay [1] (setting [3]) came to 49 nM; in assay [2], 3 nM. The figures for the Emax in assay [1] (setting [4]) and in assay [2] were 44% and 89%, respectively.
On to `CN(C)C(=O)c1ccc(OCC[C@@H]2CC23CCN(C(=O)[C@](N)(c2ccccc2)C(F)(F)F)CC3)cc1Cl` (single isomer, unassigned) [Example 12-21, 4-(2-((S or R)-6-((R or S)-2-amino-3,3,3-trifluoro-2-phenylpropanoyl)-6-azaspiro[2.5]octan-1-yl)ethoxy)-2-chloro-N,N-dimethylbenzamide], for which the EC50 in assay [1] (setting [3]) turned out to be 1400 nM; in assay [2], 42 nM. The Emax worked out at 23% in assay [1] (setting [4]) and 47% in assay [2].
With `CN(C)C(=O)c1ccc(OCC2(CC3CCN(C(=O)C(O)(c4ccccc4)C(F)(F)F)CC3)CC2)cc1Cl` (single isomer, unassigned) [Example 17-1, (R or S)-2-chloro-N,N-dimethyl-4-((1-((1-(3,3,3-trifluoro-2-hydroxy-2-phenylpropanoyl)piperidin-4-yl)methyl)cyclopropyl)methoxy)benzamide], the EC50 in assay [1] (setting [3]) is 1630 nM; in assay [2], 188 nM. Besides, the Emax in assay [1] (setting [4]) came to 19%; in assay [2], 77%.
On to `CN(C)C(=O)c1ccc(OCCCCC2CCN(C(=O)C(O)(c3cccc(Cl)c3)C(F)(F)F)CC2)cc1Cl` (single isomer, unassigned) [Example 3-2, (S or R)-2-chloro-4-(4-(1-(2-(3-chlorophenyl)-3,3,3-trifluoro-2-hydroxypropanoyl)piperidin-4-yl)butoxy)-N,N-dimethylbenzamide], for which the EC50 came to 128 nM in assay [1] (setting [3]) and 6 nM in assay [2]. Also, the Emax in assay [1] (setting [4]) was 37%; in assay [2] it was 79%.
For the molecule `CN(C)C(=O)c1ccc(OCCCCC2CCN(C(=O)C(C)(C)c3ccccc3)CC2)cc1Cl` [Example 3-6, 2-chloro-N,N-dimethyl-4-(4-(1-(2-methyl-2-phenylpropanoyl)piperidin-4-yl)butoxy)benzamide], in assay [1] (setting [5]), the “LXR alpha IP” value is “No IP”. In addition, the Emax in assay [1] (setting [4]) came to 8%; in assay [2] it was 64%. In addition, the EC50 in assay [2] was found to be 77 nM.
For `O=C(c1ccc(OCCCCC2CCN(C(=O)C(O)(c3ccccc3)C(F)(F)F)CC2)cc1Cl)N1CCC1` (single isomer, unassigned) [Example 8-1, (R or S)-1-(4-(4-(4-(azetidine-1-carbonyl)-3-chlorophenoxy)butyl)piperidin-1-yl)-3,3,3-trifluoro-2-hydroxy-2-phenylpropan-1-one], the values for the EC50 in assay [1] (setting [3]) and in assay [2] were 328 nM and 33 nM, respectively. Also, the Emax in assay [1] (setting [4]) stood at 10%; in assay [2], 55%.
For `COc1cccc([C@@](O)(C(=O)N2CCC(CC(C)CC(F)(F)Oc3ccc(C(=O)N(C)C)c(Cl)c3)CC2)C(F)(F)F)c1` (single isomer, unassigned) [Example 28-1, 2-chloro-4-((R or S)-1,1-difluoro-3-methyl-4-(1-((R or S)-3,3,3-trifluoro-2-hydroxy-2-(3-methoxyphenyl)propanoyl)piperidin-4-yl)butoxy)-N,N-dimethylbenzamide], the “LXR alpha IP” value in assay [1] (setting [5]) is recorded as “No IP”. Moreover, in assay [1] (setting [4]), the Emax was determined as 0%. In assay [2], the EC50 worked out at 65 nM and the Emax was 62%.
In the case of `COc1cccc([C@@](O)(C(=O)N2CCC(C[C@@H](C)CCOc3ccc(C(=O)N(C)C)c(Cl)c3)CC2)C(F)(F)F)c1` (single isomer, unassigned) [Example 27-1, 2-chloro-N,N-dimethyl-4-((R or S)-3-methyl-4-(1-((R or S)-3,3,3-trifluoro-2-hydroxy-2-(3-methoxyphenyl)propanoyl)piperidin-4-yl)butoxy)benzamide], the Emax was determined as 23% in assay [1] (setting [6]) and 70% in assay [2]. For the same molecule, the EC50 in assay [1] (potency (Inflection Point), compound-induced co-activator recruitment, TR-FRET, read-out: LXR alpha IP) worked out at 74 nM; in assay [2], 5 nM.
Turning to `Cc1cc(OC2CC(CC3CCN(C(=O)C(O)(c4cccc(OC5CC5)c4)C(F)(F)F)CC3)C2)ccc1C(=O)N(C)C` (single isomer, unassigned) [Example 37-12, (R or S)-4-(3-((1-(2-(3-cyclopropoxyphenyl)-3,3,3-trifluoro-2-hydroxypropanoyl)piperidin-4-yl)methyl)cyclobutoxy)-N,N,2-trimethylbenzamide], the “LXR alpha IP” value in assay [1] (setting [5]) is recorded as “No IP”. The Emax in assay [1] (setting [4]) amounted to 0%. Further, in assay [2], the EC50 amounted to 63 nM and the Emax stood at 106%.
Consider `CN(C)C(=O)c1ccc(OCCC2CC23CCN(C(=O)C2(c4ccccc4)CCCC2)CC3)cc1Cl` (single isomer, unassigned) [Example 12-1, (R or S)-2-chloro-N,N-dimethyl-4-(2-(6-(1-phenylcyclopentanecarbonyl)-6-azaspiro[2.5]octan-1-yl)ethoxy)benzamide], for which the Emax in assay [1] (setting [6]) came out at 1%; in assay [2], 58%. In addition, the “LXR alpha IP” value in assay [1] (setting [5]) is “No IP”. This molecule also showed an EC50 in assay [2] of 24 nM.
Regarding `CN(C)C(=O)c1ccc(OCCC2CC23CCN(C(=O)C2(c4ccc(Br)cc4)COC2)CC3)cc1Cl` (single isomer, unassigned) [Example 12-12, (S or R)-4-(2-(6-(3-(4-bromophenyl)oxetane-3-carbonyl)-6-azaspiro[2.5]octan-1-yl)ethoxy)-2-chloro-N,N-dimethylbenzamide], the “LXR alpha IP” value in assay [1] (setting [5]) is on record as “No IP”. Besides, the Emax in assay [1] (setting [4]) was found to be 28%. In assay [2], the EC50 amounted to 81 nM and the Emax worked out at 60%.
`CCc1nc(OCCCCC2CCN(C(=O)C(O)(c3ccccc3)C(F)(F)F)CC2)ccc1C(=O)N(C)C` (centres unmarked) [Example 5-2, 2-ethyl-N,N-dimethyl-6-(4-(1-(3,3,3-trifluoro-2-hydroxy-2-phenylpropanoyl)piperidin-4-yl)butoxyl)nicotinamide]: in assay [2], the EC50 came to 63 nM and the Emax worked out at 77%.
The corresponding values for `CN(C)C(=O)c1ccc(OCCCCC2CCN(C(=O)C(O)(c3ccccc3)C(F)(F)F)CC2)nc1Cl` (single isomer, unassigned) [Example 3-16, (R or S)-2-chloro-N,N-dimethyl-6-(4-(1-(3,3,3-trifluoro-2-hydroxy-2-phenylpropanoyl)piperidin-4-yl)butoxy)nicotinamide] are 259 nM and 83%.
In the case of `CN(C)C(=O)c1ccc(OCCCCC2CCN(C(=O)C(O)(c3ccccc3)C(F)(F)F)CC2)nc1Cl` (single isomer, unassigned) [Example 3-17, (S or R)-2-chloro-N,N-dimethyl-6-(4-(1-(3,3,3-trifluoro-2-hydroxy-2-phenylpropanoyl)piperidin-4-yl)butoxy)nicotinamide], in assay [2], the EC50 stood at 8 nM. In assay [2] (efficacy (% Emax) in relation to reference dual agonist T0901317), the “LXR beta actiivty at max dose” value is 74%.
